In patent US12226432B2, “Polymer nanoparticle, polymer composition, method of making a polymer nanoparticle, method for treatment of bacterial biofilms, and method for detection of bacterial biofilms” (UNIVERSITY OF MASSACHUSETTS, priority 2016, dated 2025):

Columns and labels:
[1] = test system: uropathogenic E. coli (CD-2); type: cell-based; conditions: serial passaging at sub-MIC, CD-2 E. coli
Procedure: The culture was then harvested and tested for MIC as describe above. E. coli CD-2 was cultured without polymer as well every time as a control for comparison of MICs.
Bacteria are capable of acquiring resistance quickly towards antibiotics and other antimicrobials, minimizing their therapeutic prospects in clinical settings. […] The resulting bacterial population was defined as the first generation, harvested, and its MIC was evaluated. Subsequently, a second generation was produced by exposing first generation with 66% MIC dosage of polymers. […] Similar experiments were conducted on ciprofloxacin (quinolone) and ceftazidime ([…]), clinically relevant antibiotics.

E. coli CD-549 = test: Checkerboard titration, antibiotic-nanoparticle synergy, CD-549; type: cell-based; conditions: in combination with polymer nanoparticles, FIG. 20
Procedure: (§1) To assess possible synergy between antibiotics and polymeric nanoparticles, two-dimensional checkerboard titrations were performed using a micro-dilution method. […] The checkerboard titrations were performed in a set of three independent experiments, repeated on different days.
(§2) Antibiotic-nanoparticle interaction was determined by calculating the fractional inhibitory concentration of antibiotics (FICAb) and NPs (FICNP) according to the following equations: FICAb=(MIC of antibiotic and NP combination)÷(MIC of antibiotic alone) FICNP=(MIC of antibiotic and NP combination)÷(MIC of NP alone) FICIcombination=FICAb+FICNP
(§3) FICAb was plotted against FICNP. A concave curve indicates synergy, whereas a convex curve indicates antagonism. Synergy was defined as FICI values ≤0.5, antagonism by FICI values >4.0, and additive interaction by FICI values between >0.5 and 4.0. The experiments were conducted across four different planktonic bacteria strains (E. clocae complex “CD-1412”; Pseudomonas aeruginosa “CD-40”; E. coli “CD-549”; and Acinetobacter species “CD-575”). […] In the presence of polymer nanoparticles, colistin's uptake in biofilms is enhanced nearly 3.5 times.

[2] = test system: Acinetobacter species CD-575; test: Checkerboard titration, antibiotic-nanoparticle synergy, CD-575; type: cell-based; conditions: in combination with polymer nanoparticles, FIG. 20
Procedure: as §1, §2, §3

[3] = test system: E. clocae complex CD-1412; test: Checkerboard titration, antibiotic-nanoparticle synergy, CD-1412; type: cell-based, E. cloacae; conditions: in combination with polymer nanoparticles, FIG. 20
Procedure: as §1, §2, §3

[4] = test system: Pseudomonas aeruginosa CD-40; test: Checkerboard titration, antibiotic-nanoparticle synergy, CD-40; type: cell-based; conditions: in combination with polymer nanoparticles, FIG. 20
Procedure: as §1, §2, §3

red blood cells (RBCs) = test: Hemolysis of red blood cells (HC50); type: cell-based, human
Procedure: Determination of Hemolysis of Cationic Polymers: Citrate-stabilized human whole blood (pooled, mixed gender) was purchased from Bioreclamation LLC, NY and processed as soon as received. 10 milliliters of phosphate buffered saline (PBS) was added to the blood and centrifuged at 5000 rpm for 5 minutes. The supernatant was carefully discarded and the red blood cells (RBCs) were dispersed in 10 milliliters of PBS. This step was repeated at least five times. The purified RBCs were diluted in 10 milliliters of PBS and kept on ice during the sample preparation. 0.1 milliliter of RBC solution was added to 0.4 milliliters of polymer solution in PBS in a 1.5 milliliter centrifuge tube (Fisher) and mixed gently by pipetting. RBCs incubated with PBS and water was used as negative and positive controls, respectively. All polymer samples as well as controls were prepared in triplicate. The mixture was incubated at 37° C. for 30 minutes while shaking at 150 rpm. After incubation period, the solution was centrifuged at 4000 rpm for 5 minutes and 100 microliters of supernatant was transferred to a 96-well plate. The absorbance value of the supernatant was measured at 570 nm using a microplate reader (SpectraMax M2, Molecular devices) with absorbance at 655 nm as a reference. The percent hemolysis was calculated using the following formula: […]

NIH 3T3 fibroblast cells = type: cell-based
Procedure: The ability to eradicate biofilms on human tissue or organs is also of significant importance. An in vitro co-culture model of mammalian fibroblast cells with biofilms grown over them was used. […] Next, P. aeruginosa bacteria was seeded on a confluent monolayer of NIH 3T3 fibroblast cells overnight to generate biofilms prior to treatment.

CC(C)(O/N=C(\C(=O)N[C@@H]1C(=O)N2C(C(=O)[O-])=C(C[n+]3ccccc3)CS[C@H]12)c1csc(N)n1)C(=O)O [ceftazidime]
increase in the MICs after serial passaging [1]: 4,200 fold

O=C(O)c1cn(C2CC2)c2cc(N3CCNCC3)c(F)cc2c1=O [ciprofloxacin]
increase in the MICs after serial passaging [1]: 33,000 fold

colistin
antibiotic-nanoparticle interaction (FICI) (E. coli CD-549): therapeutically synergistic
antibiotic-nanoparticle interaction (FICI) [2]: therapeutically synergistic
antibiotic-nanoparticle interaction (FICI) [3]: therapeutically synergistic
antibiotic-nanoparticle interaction (FICI) [4]: therapeutically synergistic

poly(oxanorbomeneimide)undecyl trimethylammonium analog [Example 5]
HC50 (red blood cells (RBCs)): 4700 µg/mL
toxicity to NIH 3T3 fibroblast cells (NIH 3T3 fibroblast cells): No significant toxicity
